Data set [1] is described as follows: Toxicity of lithium dithiocarbamates (method not described). The settings on record: statement in words, no test described.
A short description of data set [2]: Activity of lithium dithiocarbamates (method not described). The conditions noted are these: statement in words, no test described; same applications as the esters (immunomodulator, antiviral).

As to `CCN(CC)C(=S)S` [diéthyldithiocarbamate de lithium, N,N diéthyl dithiocarbamate de lithium], in data set [1], the toxicité result is recorded as “peu toxiques”. The activité result in data set [2] is given as “très actifs”.

The record behind these values is patent EP0371837A2, “Process for the synthesis of esters of dithiocarbamic acids by substitution of hydroxylated positions of mono- or polyhydroxylated molecules, products of this process and their uses” (PASTEUR MERIEUX SERUMS ET VACCINS, priority 1988, dated 1990).
